We go through 32 compounds from ChEMBL document CHEMBL3808331, “Functionalized N,N-Diphenylamines as Potent and Selective EPAC2 Inhibitors” (ACS Med Chem Lett, 2016).

Molecules are shown by their SMILES. pIC50: −log10 of the molar value. Activity calls are given as the source filed them. No cut-off for these calls is given here.

The target of the first experiment is T1, Rap guanine nucleotide exchange factor 4 (Homo sapiens, UniProt Q8WZA2). In words: Non-competitive inhibition of EPAC2 (unknown origin) assessed as reduction in cAMP-mediated guanine nucleotide exchange factor activity at 1 uM in presence of C-terminal truncated Rap1B (1 to 167 residues)-BODIPY-GDP.
Details: not given
Target sequence in this assay (Q8WZA2 whole entry, looked up, the tested form may be a part): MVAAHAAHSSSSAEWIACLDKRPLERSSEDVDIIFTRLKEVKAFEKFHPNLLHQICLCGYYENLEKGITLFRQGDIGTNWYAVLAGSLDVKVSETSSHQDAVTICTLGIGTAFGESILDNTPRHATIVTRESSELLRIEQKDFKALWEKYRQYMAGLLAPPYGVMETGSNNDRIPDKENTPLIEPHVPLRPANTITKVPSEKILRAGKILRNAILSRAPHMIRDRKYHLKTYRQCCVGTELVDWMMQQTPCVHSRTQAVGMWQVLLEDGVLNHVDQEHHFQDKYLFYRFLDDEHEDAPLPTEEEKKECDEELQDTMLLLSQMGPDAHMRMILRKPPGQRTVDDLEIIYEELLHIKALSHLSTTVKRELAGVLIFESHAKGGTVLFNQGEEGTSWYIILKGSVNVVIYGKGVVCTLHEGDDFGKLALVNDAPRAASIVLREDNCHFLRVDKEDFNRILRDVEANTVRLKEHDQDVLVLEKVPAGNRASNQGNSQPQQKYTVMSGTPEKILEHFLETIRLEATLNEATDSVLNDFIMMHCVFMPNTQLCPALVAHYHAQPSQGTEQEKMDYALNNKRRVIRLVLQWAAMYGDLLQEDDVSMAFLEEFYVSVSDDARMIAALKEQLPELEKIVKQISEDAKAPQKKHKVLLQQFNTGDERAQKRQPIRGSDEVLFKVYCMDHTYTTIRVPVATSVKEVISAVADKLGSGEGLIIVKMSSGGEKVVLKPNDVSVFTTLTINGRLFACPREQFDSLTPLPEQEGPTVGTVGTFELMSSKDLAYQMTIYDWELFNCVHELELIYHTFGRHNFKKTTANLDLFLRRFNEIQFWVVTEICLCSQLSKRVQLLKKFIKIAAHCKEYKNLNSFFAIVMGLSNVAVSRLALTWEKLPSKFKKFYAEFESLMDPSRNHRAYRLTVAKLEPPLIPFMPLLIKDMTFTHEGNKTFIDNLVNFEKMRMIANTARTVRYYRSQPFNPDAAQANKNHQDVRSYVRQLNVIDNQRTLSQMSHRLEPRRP
The inhibition is the relative decrease from the control value, in per cent. For `Cc1cc(C)c(Nc2ccc(Cl)c(C(F)(F)F)c2)c(C)c1`, the inhibition result is “Active”.

For another experiment, the target named is T1, Rap guanine nucleotide exchange factor 4. In words: Inhibition of 8-NBD-cAMP binding to EPAC2 (unknown origin) by microplate reader analysis.
Details: not given
Broadly, the pIC50 is the IC50 on a negative log10 scale, so that one unit is a factor of ten. In the case of `Cc1cc(C)c(Nc2cc(C)ccc2C)c(C)c1`, the pIC50 is 5.74.
Same read-out and setting: the figure for `Cc1cc(C)c(Nc2ccc(C)c(Cl)c2)c(C)c1` is 5.74.
Turning to `Cc1cc(C)c(Nc2cccc(Br)c2)c(C)c1`, the negative logarithm of the IC50 (pIC50) is 5.82.
Still for that read-out and setting: to `Cc1cc(C)c(Nc2ccc(Cl)c(Cl)c2)c(C)c1` belongs 5.96; to `Cc1cc(C)c(Nc2c(C)cc(Cl)cc2Cl)c(C)c1`, 6.15.
For `Cc1cc(C)c(Nc2cc(C(F)(F)F)cc(C(F)(F)F)c2)c(C)c1`, the negative-log IC50 (pIC50) is 6.22 and the inhibition result is “Dose-dependent effect”.
The corresponding values for `Cc1cc(C)c(Nc2c(C)cc(C)cc2C)c(C)c1` are 6.40 and “Dose-dependent effect”.
With `CCc1cccc(Nc2c(C)cc(C)cc2C)c1`, the pIC50 is 5.74.
In turn, `COc1cccc(Nc2c(C)cc(C)cc2C)c1` showed a negative logarithm of the IC50 (pIC50) of 4.97.
On the same count and under the same terms, the figure for `Cc1cc(C)c(Nc2cc(F)cc(Cl)c2)c(C)c1` is 5.54; for `Cc1cc(C)c(C#Cc2cccc(Nc3c(C)cc(C)cc3C)c2)c(C)c1` it is below 3.52; for `Cc1cc(C)c(Nc2ccc3c(c2)CCC3)c(C)c1` it is 5.74.
The same measure, in the same setting: the figure for `Cc1cc(C)c(Nc2ccc(Br)cc2)c(C)c1` is 5.80.
With `Cc1cc(C)c(Nc2c(F)cc(F)cc2F)c(C)c1`, the pIC50 is 5.57.
On the same count and under the same terms, the figure for `Cc1cc(C)c(Nc2cc(Cl)ccc2C)c(C)c1` is 5.85.
For `Cc1cc(C)c(Nc2cccc(Cl)c2C)c(C)c1`, the pIC50 was 6.30 and the inhibition result was “Dose-dependent effect”.
On to `Cc1cc(C)c(Nc2ccc(F)c(Cl)c2)c(C)c1`, for which the negative-log IC50 (pIC50) is 5.54.
The same measure, in the same setting: the figure for `Cc1cc(C)c(Nc2cc(Cl)c(Cl)c(Cl)c2)c(C)c1` is 5.96; for `Cc1cc(C)c(Nc2cccc(O)c2)c(C)c1` it is 4.34.
The compound `Cc1cc(C)c(Nc2cccc(C)c2C)c(C)c1` had a pIC50 of 6.00.
Compound `Cc1ccc(Nc2c(C)cc(C)cc2C)c(C)c1` had a pIC50 of 5.66.
On the same count and under the same terms, the figure for `Cc1cc(C)c(Nc2cc(F)c(F)c(F)c2)c(C)c1` is 5.52; for `Cc1cc(C)c(Nc2cccc(C(F)(F)F)c2)c(C)c1` it is 5.70.
Still for that read-out and setting: to `Cc1cc(C)c(Nc2cccc(F)c2)c(C)c1` belongs 5.24; to `Cc1cc(C)cc(Nc2c(C)cc(C)cc2C)c1`, 5.77; to `Cc1cc(C)c(Nc2cccc(N)c2)c(C)c1`, 4.47.
With `Cc1cc(C)c(Nc2ccc(Cl)c(C(F)(F)F)c2)c(C)c1`, the negative-log IC50 (pIC50) was 6.40 and the inhibition entry was “Dose-dependent effect”.
Regarding `Cc1cc(C)c(Nc2cc(Cl)cc(C(F)(F)F)c2)c(C)c1`, the negative logarithm of the IC50 (pIC50) was 6.30.
Regarding `Cc1cc(C)c(Nc2ccc(Cl)c(F)c2)c(C)c1`, the pIC50 is 5.48.
Still for that read-out and setting: to `Cc1cc(C)c(Nc2cc(F)cc(F)c2)c(C)c1` belongs 5.24; to `Cc1cc(C)c(Nc2ccc(F)c(F)c2)c(C)c1`, 5.06.

The experiment is the same for the next values; noted with them: concentration not given here.
Consider `Cc1cc(C)c(Nc2cc(C(F)(F)F)cc(C(F)(F)F)c2)c(C)c1`, for which the inhibition came out at 60%.
In the case of `Cc1cc(C)c(Nc2c(C)cc(C)cc2C)c(C)c1`, the inhibition was 80%.
Still for that read-out and setting: the figure for `Cc1cc(C)c(Nc2cccc(Cl)c2C)c(C)c1` is 80%.
`Cc1cc(C)c(Nc2ccc(Cl)c(C(F)(F)F)c2)c(C)c1` had an inhibition of 80%.

A further experiment has the same target. Put plainly: Inhibition of EPAC2 (unknown origin) assessed as reduction in cAMP-mediated guanine nucleotide exchange factor activity in presence of C-terminal truncated Rap1B (1 to 167 residues)-BODIPY-GDP by microplate reader analysis.
Details: not given
Take `Cc1cc(C)c(Nc2cc(C(F)(F)F)cc(C(F)(F)F)c2)c(C)c1`: the negative logarithm of the IC50 (pIC50) was 5.89.
Still for that read-out and setting: to `Cc1cc(C)c(Nc2c(C)cc(C)cc2C)c(C)c1` belongs 5.77.
The same measure, in the same setting: to `Cc1cc(C)c(Nc2cccc(Cl)c2C)c(C)c1` belongs 5.44; to `Cc1cc(C)c(Nc2ccc(Cl)c(C(F)(F)F)c2)c(C)c1`, 6.00.

Staying with this experiment, now noted: concentration not given here.
With `CC(C)(C)c1cc(C(=O)/C(C#N)=N/Nc2cccc(Cl)c2)no1`, the inhibition is above 80%.
Still for that read-out and setting: to `Cc1cc(C)c(Nc2cc(C(F)(F)F)cc(C(F)(F)F)c2)c(C)c1` belongs above 80%; to `Cc1cc(C)c(Nc2c(C)cc(C)cc2C)c(C)c1`, above 80%; to `Cc1cc(C)c(Nc2cccc(Cl)c2C)c(C)c1`, above 80%.
On the same count and under the same terms, to `Cc1cc(C)c(Nc2ccc(Cl)c(C(F)(F)F)c2)c(C)c1` belongs above 80%.

For the next experiment, the target named is T2, Rap guanine nucleotide exchange factor 3 (Homo sapiens) (UniProt O95398).
T2 sequence (whole entry): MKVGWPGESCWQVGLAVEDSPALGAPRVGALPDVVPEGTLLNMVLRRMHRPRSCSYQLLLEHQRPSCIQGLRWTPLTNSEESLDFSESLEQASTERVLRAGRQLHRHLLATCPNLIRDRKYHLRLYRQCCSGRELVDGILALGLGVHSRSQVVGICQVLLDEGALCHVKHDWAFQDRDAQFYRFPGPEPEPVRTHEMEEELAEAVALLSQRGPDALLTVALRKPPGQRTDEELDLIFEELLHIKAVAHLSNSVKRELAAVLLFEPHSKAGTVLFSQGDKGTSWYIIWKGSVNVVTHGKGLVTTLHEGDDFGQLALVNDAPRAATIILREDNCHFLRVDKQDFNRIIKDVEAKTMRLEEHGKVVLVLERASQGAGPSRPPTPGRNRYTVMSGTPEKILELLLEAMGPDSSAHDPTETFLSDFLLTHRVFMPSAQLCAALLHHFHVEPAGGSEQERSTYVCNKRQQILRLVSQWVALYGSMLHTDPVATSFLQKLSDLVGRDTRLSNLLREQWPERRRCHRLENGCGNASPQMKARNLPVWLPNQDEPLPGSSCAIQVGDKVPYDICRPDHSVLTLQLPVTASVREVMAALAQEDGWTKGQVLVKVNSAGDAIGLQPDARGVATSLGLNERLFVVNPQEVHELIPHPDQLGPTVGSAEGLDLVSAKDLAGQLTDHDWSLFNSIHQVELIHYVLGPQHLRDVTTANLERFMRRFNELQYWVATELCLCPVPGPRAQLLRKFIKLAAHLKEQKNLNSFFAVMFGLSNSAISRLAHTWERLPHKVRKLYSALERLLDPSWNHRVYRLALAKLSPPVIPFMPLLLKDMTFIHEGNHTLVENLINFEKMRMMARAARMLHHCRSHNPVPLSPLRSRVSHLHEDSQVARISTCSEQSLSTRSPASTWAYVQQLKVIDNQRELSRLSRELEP
In words: Inhibition of EPAC1 (unknown origin) assessed as reduction in cAMP-mediated guanine nucleotide exchange factor activity up to 100 uM in presence of C-terminal truncated Rap1B (1 to 167 residues)-BODIPY-GDP by microplate reader analysis.
Details: not given
Take `Cc1cc(C)c(Nc2cc(C(F)(F)F)cc(C(F)(F)F)c2)c(C)c1`: the inhibition entry is “inactive”.
As for `Cc1cc(C)c(Nc2c(C)cc(C)cc2C)c(C)c1`, the inhibition entry is “inactive”.
Same read-out and setting: the entry for `Cc1cc(C)c(Nc2cccc(Cl)c2C)c(C)c1` is “inactive”; for `Cc1cc(C)c(Nc2ccc(Cl)c(C(F)(F)F)c2)c(C)c1` it is “inactive”.
